The text below walks through data of US11999718B2, “Pyrazole derivatives” (Aptabio Therapeutics Inc., priority 2021, dated 2024).

For test [1], the system named is IL-6. Put plainly: Expression of IL-6 in pancreatic cancer associated fibroblasts (ELISA). To be noted: P.CAF cells, 48 hours treatment, FIG. 5. The test is classed as cell-based, human. The protocol:
(§1) In order to confirm the effect of the compounds of Synthetic examples of the present invention on inflammation reaction in cancer associated fibroblasts, whether the expression of IL6 and IL8 was inhibited by the compounds of Synthetic examples in pancreatic cancer associated fibroblasts (P.CAF) was observed.
(§2) After inoculating 1.5×10^5 cells in a 6 well plate and then culturing in P.CAF complete media for 48 hours, the compounds of Synthetic examples were treated by 10, 20, 30, 40, 60 and 80 μM for 48 hours according to each condition, and then the expression of IL-6 and IL-8 was confirmed by performing ELISA with Quantkine ELISA kit (R&D systems) as follows.
(§3) 100 μl of the culture solution in which the compounds of Synthetic examples were treated for 48 hours was added to the microplate strip for analysis including a 100 μl assay diluent and left at a room temperature for 2 hours and then the contents were removed, and then it was washed with 400 μl wash buffer 4 times. 200 μl of a human IL-6 or IL-8 conjugate was added and left at a room temperature for 2 hours and then the contents were removed, and then it was washed with 400 μl wash buffer 4 times. 200 μl of substrate solution was added and left at a room temperature for 20 minutes and then 50 μl of stop solution was added, and the absorbance at a wavelength of 450 nm was measured within 30 minutes to confirm the expression level of IL-6 and IL-8.
A general note: In an ELISA, binding on a coated surface is turned into a signal by an enzyme label.

Test [2] has as its system HL-60 cells differentiated into neutrophil cells. Put plainly: ROS production induced by PMA in HL-60 cells differentiated into neutrophil cells. The test is classed as cell-based. To be noted: Homo sapiens, 0.5 h; differentiated HL-60 cells, compounds 0.5 uM (0.5 mM in the source) for 30 minutes, 200 nM PMA, L-012 luminescence.
Test [3] deals with IL-1β. Nature of the test: Expression of IL-1β induced by LPS in human-derived fibroblasts (RT-PCR). The test is classed as cell-based. To be noted: LX2, NHLF, ARPE19 and KEL-Fib cells, LPS 1 μg/ml 6 hours, 10 μM compound, FIG. 8. The protocol:
After inoculating 2×10^5 cells in a 6 well plate and then culturing for 24 hours, they were further cultured in a serum-free culture solution for 16 hours and then the Synthetic example 1 Compound was pre-treated for 20 minutes according to each condition and inflammation reaction was induced with LPS (1 μg/ml) for 6 hours. The expression of IL-1β was confirmed using RT-PCR. Total RNA was separated from the cells using RNeasy mini kit (Qiagen), and for the separated RNA 2 ug, cDNA was synthesized using PrimeScript™ II 1st strand cDNA synthesis kit (TaKaRa) and then PCR was performed with AccuPower® PCR PreMix (Bioneer) to amplify genes. The nucleotide sequences for target primers are as follows. IL-1β (forward: 5′-[…]-3′(SEQ ID NO: 1), reverse: 5′-[…]-3′(SEQ ID NO: 2)); GAPDH (forward: 5′-[…]-3′(SEQ ID NO: 3), reverse: 5′-[…]-3′(SEQ ID NO: 4)); β-actin (forward: 5′-[…]-3′(SEQ ID NO: 5), reverse: 5′-[…]-3′(SEQ ID NO: 6)). The PCR product was confirmed by electrophoresis in 1.5% agarose gel.

Test [4] deals with LX-2 cells. Put plainly: ROS production induced by PMA in LX-2 cells. The test is classed as cell-based, human. The conditions noted are these: FIG. 1. An excerpt: (§4) In order to confirm the effect of the compounds of Synthetic examples on ROS production from fibroblasts and specific substrate cells, ROS production was induced by stimulation of PMA (phorbol 12-myristate 13-acetate), TGF-β1, palmitate or high concentration-glucose, or the like, in HL-60 cells differentiated into neutrophil cells by DMSO treatment, NHLF (normal human lung fibroblast, Lonza), LX-2 (human hepatic stellate cells, Sigma), ARPE19 (human retinal pigment epithelial cell, ATCC), and KEL-FIB (Keloid fibroblast, ATCC) cells, and under this condition, the inhibitory effect of ROS production of the compounds of Synthetic Examples was observed.
(§5) The NHLF (normal human lung fibroblast, Lonza), LX-2 (human hepatic stellate cells, Sigma), ARPE19 (human retinal pigment epithelial cell, ATCC), KEL-FIB (keloid fibroblast, ATCC) cells were suspended in a culture medium containing 10% FBS and aliquoted on a 96 well plate and then cultured under the condition of 5% CO2, 37° C. for 24 hours. After pre-treating the compounds of Synthetic examples at a concentration of 10, 20, 30, 40, 60 and 80 μM for 30 minutes to 1 hour, the ROS stimulus was treated to each well containing the cells and drug. After additional culturing for 48 hours, the ROS production level was confirmed using L-012 or DCF-DA.

In test [5] the test system is αSMA. Put plainly: Expression of αSMA induced by TGF-β1 (immunocytochemistry). The conditions noted are these: TGF-β1 10 ng/ml, 10 μM compound, FIG. 4. The test is classed as cell-based, human. An excerpt: In order to confirm whether the compounds of Synthetic examples of the present invention affect differentiation of fibroblasts into myofibroblasts, the inhibitory effect of the compounds of Synthetic examples on increase in expression of αSMA (biomarker for confirming differentiation into myofibroblasts) induced by TGF-β1 on HFF-1 (human foreskin fibroblast, ATCC), NHLF (normal human lung fibroblast, Lonza), LX-2 (human hepatic stellate cells, Sigma), ARPE19 (human retinal pigment epithelial cell, ATCC), and KEL-FIB (Keloid fibroblast, ATCC) cells was to be observed.
Each cell was suspended in a DMEM medium containing 10% FBS and aliquoted at a concentration of 1×10^4 to 1.5×10^5 cells/well in a 4-well chamber slide (Nunc) and the compounds of Synthetic examples and TGF-β1 (both TGF β1 and TGF-β have the same meaning) were treated to prepare cells to be used for confirming αSMA expression. The confirmation of αSMA expression in the prepared cells was performed by immunocytochemistry as follows. For the cells, fixation with 4% paraformaldehyde for 10 minutes and permeabilization using 0.1% Triton x-100 were performed, and then processes of treating the primary antibody (anti-αSMA Ab, 1:200, at 4° C. for 16 hours) and secondary antibody (Alexa-594 conjugated Ab, 1:800, at a room temperature for 1 hour) against αSMA were progressed in order, and then the expression level of αSMA was observed using a fluorescence microscope.
FIG. 3 observes the effect of treating various compounds of Synthetic examples by 10, 20 and 40 μM, after inducing αSMA expression by treatment of TGF-β1(10 ng/ml) into HFF cells.

Test [6] relates to IL-8. Put plainly: Expression of IL-8 in pancreatic cancer associated fibroblasts (ELISA). The test is classed as cell-based, human. The conditions noted are these: P.CAF cells, 48 hours treatment, FIG. 6. The protocol: as §1, §2, §3
Test [7] has as its system HFF-1 cells. Put plainly: Collagen gel contraction induced by TGF-β1 in HFF-1 cells. To be noted: HFF-1 cells in collagen gel, TGF-β1 10 ng/ml, 72 hours, FIG. 7. The test is classed as cell-based, human. An excerpt: In order to confirm the effect of the compounds of Synthetic examples on differentiation of fibroblasts into myofibroblasts, the inhibitory effect of the compounds of Synthetic examples on the phenomenon of contraction of gel induced by interaction of human foreskin fibroblasts (HFF-1, ATCC) and collagen was observed.
The mixed solution of the HFF-1 cells and collagen (bovine type I collagen) prepared at a concentration of 3×10^6 cells/ml was aliquoted in a 24 well plate, respectively, and then cultured under the condition of 5% CO2, 37° C. for 1 hour to induce gel polymerization. Then, after suspending the gel attached on the plate from the plate using a spoon, a medium comprising TGF-β1 and Synthetic example compounds was added to each well. After culturing for 72 hours, the Synthetic example compounds were treated by 10, 20, 30, 40, 60 and 80 μM to measure the size of the gel, and thereby, the degree of contraction of the gel by drug treatment was confirmed.

In test [8] the test system is NHLF cells. Put plainly: ROS production induced by PMA in NHLF cells. The format is cell-based, human. The conditions noted are these: FIG. 1.
From the text: as §4, §5

For orientation: inhibition means the relative decrease from the control value, in per cent. For the compound `CN(Cc1ccccc1)C1CCc2nn(-c3ccccn3)c(O)c2C1` (centres unmarked) [Compound 1, 5-(Benzylmethylamino)-2-(pyridin-2-yl)-4,5,6,7-tetrahydro-2H-indazol-3-ol], the “IL-6 expressed in P.CAF” value in test [1] was “effectively inhibited”. The compound also registered an inhibition at 0.5 µM in test [2] of over 70%. For the same compound, the “IL-1β induced by LPS” value in test [3] is on record as “effectively inhibited in a concentration-dependent manner”. The “ROS production induced by PMA” value in test [4] and in test [8] was “inhibited” in each case. Besides, the “increase in expression of αSMA induced by TGF-β1” value in test [5] (ARPE19 cells), in test [5] (KEL-FIB cells), in test [5] (LX-2 cells) and in test [5] (NHLF cells) was “significantly inhibited” throughout. In test [6], the “IL-8 expressed in P.CAF” value was “effectively inhibited”. Besides, in test [7], the “contraction of the gel induced by TGF-β1” value is “effectively inhibited”.
